Assays:
[1] = system: HIF-1α; assay: Western blot analysis of HIF-1α expression in MCF-7 MS cells; format: cell-based, human; details: 48 h, FIG. 8
Procedure: (§1) The human breast cancer stem cell-like MCF7 MS cells were divided into control (Ctrl) group, PTX alone treatment group, ComA alone treatment group, and ComA combined with PTX treatment group, treated for 48 h, and then collected; the cells were washed twice with pre-cooled 1×PBS, and PBS was discarded; 100-200 μl RIPA cell lysis solution (RIPA cell lysis solution:Protease inhibitor cocktail=250:1) was added according to the amount of cells; the mixture was transferred to an EP tube for lysis on ice for 40-60 min, and centrifuged at 4° C. at 12000 rpm/min for 15 minutes; and the supernatant was taken and stored at −80° C. for later use.
(§2) Protein standard curve was prepared (in a 96-well plate), with the configuration system and absorbance shown in the table below, wherein the protein solution was placed at 37° C. and shaken for 30 min, the OD value was measured at 570 nm wavelength, and the protein standard curve was drawn: the abscissa being the standard protein content, and the ordinate being the absorbance value (OD value) under the 570 nm wavelength, thereby drawing a standard curve.
(§3) The samples were treated with 6× protein loading buffer. According to the quantified protein concentration, 30 μl:50 μg protein sample per well was loaded, the well was filled with PBS up to 30 μl when the sample was insufficient, and the samples were denatured in a metal bath at 100° C. for 10 min. […]

[2] = target: T1, HIF-2α (Homo sapiens, UniProt Q99814); assay: Western blot analysis of HIF-2α expression in MCF-7 MS cells; format: cell-based; details: 48 h, FIG. 8
T1 construct: endogenous in cells; host or cells: MCF-7 MS (mammosphere / stem cell-like cells induced from human breast cancer MCF-7)
Procedure: as §1, §2, §3

[3] = system: human breast cancer stem cell-like MCF-7 MS cells; assay: MTT/CCK8 cell proliferation analysis; format: cell-based
Procedure: (§4) When MCF-7 or OVCAR-3 cells grew to 70%-80%, the medium was discarded, PBS was added for washing 3 times, and trypsin was added for digestion for 1 min; the DMEM medium containing 10% fetal calf serum was added to stop the digestion, centrifuged at 1000 rpm for 5 min, the supernatant was discarded, PBS was added to resuspend cells, centrifuged at 1000 rpm for 5 min, the supernatant was discarded, 2 ml DMEM-F12 conditioned medium was added to resuspend cells, and the cells were cultured in suspension at 37° C., 5% CO2 in a constant-humidity environment.
(§5) Well-growing human breast cancer MCF-7 cells, human breast cancer stem cell-like cell MCF-7 MS cells, human ovarian cancer OVCAR-3 cells, human ovarian cancer stem cell-like cell OVCAR-3 cells were taken, digested, resuspended, and inoculated in a 96-well plate with the number of cells per well being 5×10^3; after 24 hours of culture, different concentrations of ComA, ComA combined with PTX, or ComA combined with DDP were administrated for treating the cells for 48 hours, with 3 replicate wells for each concentration; 5 mg/ml of MTT/cck8 was added for treatment for 2 h, followed by shaking for 10 min in a shaker; the absorbance at 570 nm (for measuring MTT)/450 nm (for measuring CCK8) was measured with a microplate reader, the inhibition rate was calculated according to the formula: inhibition rate %=[1−(dosing well-zero adjustment well)/(control well-zero adjustment well)]*100%; IC50 was calculated with SPSS16.0 software, and the experiment was repeated three times.

[4] = system: human ovarian cancer stem cell-like OVCAR-3 MS cells; assay: MTT/CCK8 cell proliferation analysis; format: cell-based
Procedure: as §4, §5

[5] = system: human breast cancer MCF-7 cells; assay: MTT/CCK8 cell proliferation analysis; format: cell-based
Procedure: (§6) MCF-7 and OVCAR-3 cells were taken out from liquid nitrogen, thawed in a water bath at 37° C., and centrifuged at 1000 rpm for 5 min, the supernatant was removed, 1 ml of DMEM medium with 10% fetal bovine serum was added to MCF-7 cells, the cell suspension was transferred into a 25 cm2 cells culture flask, and a medium with 10% fetal bovine serum was added for culture.
as §5

[6] = system: human ovarian cancer OVCAR-3 cells; assay: MTT/CCK8 cell proliferation analysis; format: cell-based; details: MTT/cck8, FIG. 5
Procedure: as §6, §5

T1 sequence (Q99814 whole entry): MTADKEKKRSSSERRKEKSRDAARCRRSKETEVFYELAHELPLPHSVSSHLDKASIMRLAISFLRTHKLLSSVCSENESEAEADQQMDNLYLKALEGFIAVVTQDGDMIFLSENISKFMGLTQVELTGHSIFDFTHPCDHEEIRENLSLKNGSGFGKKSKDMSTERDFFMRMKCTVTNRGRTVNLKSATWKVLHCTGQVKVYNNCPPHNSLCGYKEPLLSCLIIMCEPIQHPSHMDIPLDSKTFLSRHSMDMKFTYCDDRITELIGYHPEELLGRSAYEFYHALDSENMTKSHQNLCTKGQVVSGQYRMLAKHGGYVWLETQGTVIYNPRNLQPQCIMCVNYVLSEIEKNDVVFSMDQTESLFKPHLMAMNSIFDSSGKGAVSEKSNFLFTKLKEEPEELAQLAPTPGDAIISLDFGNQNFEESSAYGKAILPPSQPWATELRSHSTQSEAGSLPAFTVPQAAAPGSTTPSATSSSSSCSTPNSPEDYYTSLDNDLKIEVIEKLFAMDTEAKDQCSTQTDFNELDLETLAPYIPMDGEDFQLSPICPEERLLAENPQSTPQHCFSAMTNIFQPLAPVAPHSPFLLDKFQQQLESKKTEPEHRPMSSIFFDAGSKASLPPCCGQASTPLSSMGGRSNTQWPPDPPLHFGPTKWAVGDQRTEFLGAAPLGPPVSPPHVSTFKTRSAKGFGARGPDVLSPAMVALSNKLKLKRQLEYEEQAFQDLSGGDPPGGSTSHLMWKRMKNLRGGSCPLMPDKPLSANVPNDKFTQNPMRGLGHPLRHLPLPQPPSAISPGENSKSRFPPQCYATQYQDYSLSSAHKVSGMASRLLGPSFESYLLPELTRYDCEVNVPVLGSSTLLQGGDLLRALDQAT

## Cc1ccn2c(=O)cc(CN(Cc3ccccc3)Cc3ccco3)nc2c1 [ComA]
[1]
  expression of HIF-1α: no obvious inhibitory effect
[2]; ComA alone
  expression of HIF-2α: obviously inhibited the expression of HIF-2α
[2]; ComA combined with PTX
  expression of HIF-2α: obviously inhibited the expression of HIF-2α
[3]; ComA combined with PTX, 48 hours, FIG. 6
  enhancement of the inhibitory effect of paclitaxel (PTX): can enhance the inhibitory effect
[3]; MTT/cck8, FIG. 4
  inhibitory activity on proliferation: obvious inhibitory activity
[4]; ComA combined with DDP, 48 hours, FIG. 7
  enhancement of the inhibitory effect of cisplatin (DDP): can enhance the inhibitory effect
[4]; MTT/cck8, FIG. 5
  inhibitory activity on proliferation: obvious inhibitory activity
[5]; MCF-7 cells, MTT/cck8, FIG. 4
  inhibitory activity on proliferation: obvious inhibitory activity
[5]; stated for tumor cells and tumor stem cells together
  time dependence of anti-tumor cell and anti-tumor stem cell activity: obviously time-dependent
[6]
  inhibitory activity on proliferation: obvious inhibitory activity

From US11591330B2, “HIF-2a small-molecule inhibitor and use thereof” (China Medical University, priority 2018, dated 2023)
